# Test results published in PubChem BioAssay (NCI).
#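 Growth conditions: 96-well plates. Treatment: test compound, 48 hours, 5 concentrations. Analysis: linear interpolation between bracketing concentrations; unreached endpoints set to highest concentration. At the TGI there is no net growth.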
# Legend:
# Test in all cases: DTP human tumour cell line panel, 48 h
# [1] = tested on: 786-0 renal
# [2] = tested on: A549 NSCLC
# [3] = tested on: BT-549 breast
# [4] = tested on: CAKI-1 renal
# [5] = tested on: COLO 205 colon
# [6] = tested on: DU-145 prostate
# [7] = tested on: HCC-2998 colon
# [8] = tested on: HCT-116 colon
# [9] = tested on: HCT-15 colon
# [10] = tested on: HL-60(TB) leukemia
# [11] = tested on: HOP-92 NSCLC
# [12] = tested on: HT29 colon
# [13] = tested on: IGROV1 ovarian
# [14] = tested on: K-562 leukemia
# [15] = tested on: KM12 colon
# [16] = tested on: M14 melanoma
# [17] = tested on: MALME-3M melanoma
# [18] = tested on: MCF7 breast
# [19] = tested on: MDA-MB-231 breast
# [20] = tested on: MDA-MB-435
# [21] = tested on: MDA-N
# [22] = tested on: MOLT-4 leukemia
# [23] = tested on: NCI-H226 lung
# [24] = tested on: NCI-H23 lung
# [25] = tested on: NCI-H522 lung
# [26] = tested on: NCI/ADR-RES ovarian
# [27] = tested on: OVCAR-3 ovarian
# [28] = tested on: OVCAR-4 ovarian
# [29] = tested on: OVCAR-5 ovarian
# [30] = tested on: OVCAR-8 ovarian
# [31] = tested on: PC-3 prostate
# [32] = tested on: RPMI-8226 leukemia
# [33] = tested on: RXF 393 renal
# [34] = tested on: SF-268 CNS
# [35] = tested on: SF-295 CNS
# [36] = tested on: SF-539 CNS
# [37] = tested on: SK-MEL-2 melanoma
# [38] = tested on: SK-MEL-28 melanoma
# [39] = tested on: SK-MEL-5 melanoma
# [40] = tested on: SN12C renal
# [41] = tested on: SNB-19 CNS
# [42] = tested on: SNB-75 CNS
# [43] = tested on: SW-620 colon
# [44] = tested on: T-47D breast
# [45] = tested on: TK-10 renal
# [46] = tested on: U251 CNS
# [47] = tested on: UACC-257 melanoma
# [48] = tested on: UACC-62 melanoma
# [49] = tested on: UO-31 renal
# [50] = tested on: A498 renal
# [51] = tested on: ACHN renal
# [52] = tested on: CCRF-CEM leukemia
# [53] = tested on: EKVX NSCLC
# [54] = tested on: HOP-62 NSCLC
# [55] = tested on: HS 578T breast
# [56] = tested on: LOX IMVI melanoma
# [57] = tested on: SK-OV-3 ovarian
smiles,measurement,setting,value
COc1cc(C2c3cc4c(cc3OC(Nc3ccccc3)C2C)OCO4)cc(OC)c1O (stereo not drawn),TGI,[1],21.7 µM
same,TGI,[2],19.2 µM
same,TGI,[3],26 µM
same,TGI,[4],> 100 µM
same,TGI,[5],33.5 µM
same,TGI,[6],19.6 µM
same,TGI,[7],14.6 µM
same,TGI,[8],16 µM
same,TGI,[9],17.5 µM
same,TGI,[10],4.34 µM
same,TGI,[11],48.7 µM
same,TGI,[12],18.1 µM
same,TGI,[13],48 µM
same,TGI,[14],7.49 µM
same,TGI,[15],38.7 µM
same,TGI,[16],60.7 µM
same,TGI,[17],21.6 µM
same,TGI,[18],24.6 µM
same,TGI,[19],19.3 µM
same,TGI,[20],1.95 µM
same,TGI,[21],3.01 µM
same,TGI,[22],11.2 µM
same,TGI,[23],39.8 µM
same,TGI,[24],33.5 µM
same,TGI,[25],9.16 µM
same,TGI,[26],8.02 µM
same,TGI,[27],24.6 µM
same,TGI,[28],48.2 µM
same,TGI,[29],26.2 µM
same,TGI,[30],23.8 µM
same,TGI,[31],13.4 µM
same,TGI,[32],9.86 µM
same,TGI,[33],19.7 µM
same,TGI,[34],39.4 µM
same,TGI,[35],15.6 µM
same,TGI,[36],8.9 µM
same,TGI,[37],8.59 µM
same,TGI,[38],28.4 µM
same,TGI,[39],10.7 µM
same,TGI,[40],21.2 µM
same,TGI,[41],> 100 µM
same,TGI,[42],7.35 µM
same,TGI,[43],16.3 µM
same,TGI,[44],> 100 µM
same,TGI,[45],20.2 µM
same,TGI,[46],14.2 µM
same,TGI,[47],34 µM
same,TGI,[48],23 µM
same,TGI,[49],25.8 µM
CC1(C)C(CCO)CC1n1cc(I)c(=O)[nH]c1=O (stereo not drawn),TGI,[1],> 100 µM
same,TGI,[50],> 100 µM
same,TGI,[2],> 100 µM
same,TGI,[51],> 100 µM
same,TGI,[4],> 100 µM
same,TGI,[52],> 100 µM
same,TGI,[5],> 100 µM
same,TGI,[6],> 100 µM
same,TGI,[53],> 100 µM
same,TGI,[7],> 100 µM
same,TGI,[8],> 100 µM
same,TGI,[9],> 100 µM
same,TGI,[54],> 100 µM
same,TGI,[11],> 100 µM
same,TGI,[55],> 100 µM
same,TGI,[14],> 100 µM
same,TGI,[15],> 100 µM
same,TGI,[56],> 100 µM
same,TGI,[16],> 100 µM
same,TGI,[18],> 100 µM
same,TGI,[19],> 100 µM
same,TGI,[20],> 100 µM
same,TGI,[21],> 100 µM
same,TGI,[22],> 100 µM
same,TGI,[23],> 100 µM
same,TGI,[26],> 100 µM
same,TGI,[27],> 100 µM
same,TGI,[28],> 100 µM
same,TGI,[29],> 100 µM
same,TGI,[31],> 100 µM
same,TGI,[32],> 100 µM
same,TGI,[33],> 100 µM
same,TGI,[34],> 100 µM
same,TGI,[35],> 100 µM
same,TGI,[36],> 100 µM
same,TGI,[37],> 100 µM
same,TGI,[38],> 100 µM
same,TGI,[39],> 100 µM
same,TGI,[57],> 100 µM
same,TGI,[40],> 100 µM
same,TGI,[41],> 100 µM
same,TGI,[42],> 100 µM
same,TGI,[43],> 100 µM
same,TGI,[44],> 100 µM
same,TGI,[45],> 100 µM
same,TGI,[46],> 100 µM
same,TGI,[47],> 100 µM
same,TGI,[48],> 100 µM
same,TGI,[49],> 100 µM
